Tested on: L929 cell line
Experiment: Cytotoxicity MTS assay, L929 cell line
Type: cell-based
Settings: for OD490 values, Mean / OD490 values, Well 1 / OD490 values, Well 2 / OD490 values, Well 3: L929 cell line
Method: The positive compounds (IC50 < 100 μM) obtained from the primary Eg5 motor protein ATPase assay were tested for antiproliferative activity in vitro against Caco-2 cell line, Hela cell line, L929 cell line and T24 cell line by performing MTS assay. Cells were introduced into 96-well plates at a density of 1000 cells per well. After 24 h incubation, the cells were exposed with compounds at final concentrations ranging from 0.5 to 100 µM for 24 h. DMSO was used at a final concentration of 0.025% as blank control, monastrol was used as the positive control. Then 20 µL (CellTiter 96® AQueous One Solution Promega, Madison, WI, USA) reagent was added in each well. After 2 h at 37 °C in a 80% humidified, 5% CO2 atmosphere, the absorbance at 490 nm was recorded using a microplate reader (BIO-RAD iMark^TM). The results were obtained in three independent duplicate experiments. The primary data were shown in Supplementary Materials Tables S4–S7. The IC50 values for these compounds were calculated from a non-linear regression graph plotted between the percentage of cell viability and concentration with SPSS17.0 software.

Question: How did the “OD490 values, Mean” value (0.5μM, first assay) turn out when `CCOC(=O)c1[nH]c(C2NC(=S)NC(C)=C2C(=O)OC)c(C(=O)OCC)c1C` (stereo not shown) [D12] was run?
Answer: 1.1913

Question: What about the “OD490 values, Well 1” value (0.5μM, first assay) of the same compound?
Answer: 1.1038

Question: What about the “OD490 values, Well 2” value (0.5μM, first assay) of the same compound?
Answer: 1.2202

Question: What about the “OD490 values, Well 3” value (0.5μM, first assay) of the same compound?
Answer: 1.2500

Question: And the “OD490 values, Mean” value (0.5μM, second assay)?
Answer: 1.4730

Question: And the “OD490 values, Well 1” value (0.5μM, second assay)?
Answer: 1.5380

Question: What about the “OD490 values, Well 2” value (0.5μM, second assay) of the same compound?
Answer: 1.4321

Question: And the “OD490 values, Well 3” value (0.5μM, second assay)?
Answer: 1.4489

Question: What about the “OD490 values, Mean” value (0.5μM, third assay) of the same compound?
Answer: 1.5772

Question: And the “OD490 values, Well 1” value (0.5μM, third assay)?
Answer: 1.5471

Question: What about the “OD490 values, Well 2” value (0.5μM, third assay) of the same compound?
Answer: 1.5630

Question: What about the “OD490 values, Well 3” value (0.5μM, third assay) of the same compound?
Answer: 1.6214

Question: What about the “OD490 values, Mean” value (1μM, first assay) of the same compound?
Answer: 1.1860

Question: And the “OD490 values, Well 1” value (1μM, first assay)?
Answer: 1.2156

Question: And the “OD490 values, Well 2” value (1μM, first assay)?
Answer: 1.2049

Question: And the “OD490 values, Well 3” value (1μM, first assay)?
Answer: 1.1374

Question: And the “OD490 values, Mean” value (1μM, second assay)?
Answer: 1.4734

Question: What about the “OD490 values, Well 1” value (1μM, second assay) of the same compound?
Answer: 1.5248

Question: And the “OD490 values, Well 2” value (1μM, second assay)?
Answer: 1.4852

Question: And the “OD490 values, Well 3” value (1μM, second assay)?
Answer: 1.4101

Question: And the “OD490 values, Mean” value (1μM, third assay)?
Answer: 1.5596

Question: And the “OD490 values, Well 1” value (1μM, third assay)?
Answer: 1.5474

Question: What about the “OD490 values, Well 2” value (1μM, third assay) of the same compound?
Answer: 1.5836

Question: What about the “OD490 values, Well 3” value (1μM, third assay) of the same compound?
Answer: 1.5478

Question: What about the “OD490 values, Mean” value (10μM, first assay) of the same compound?
Answer: 1.1924

Question: And the “OD490 values, Well 1” value (10μM, first assay)?
Answer: 1.2175

Question: What about the “OD490 values, Well 2” value (10μM, first assay) of the same compound?
Answer: 1.1577

Question: What about the “OD490 values, Well 3” value (10μM, first assay) of the same compound?
Answer: 1.2021

Question: What about the “OD490 values, Mean” value (10μM, second assay) of the same compound?
Answer: 1.4056

Question: And the “OD490 values, Well 1” value (10μM, second assay)?
Answer: 1.3665

Question: And the “OD490 values, Well 2” value (10μM, second assay)?
Answer: 1.4252

Question: What about the “OD490 values, Well 3” value (10μM, second assay) of the same compound?
Answer: 1.4252

Question: What about the “OD490 values, Mean” value (10μM, third assay) of the same compound?
Answer: 1.6223

Question: What about the “OD490 values, Well 1” value (10μM, third assay) of the same compound?
Answer: 1.6874

Question: What about the “OD490 values, Well 2” value (10μM, third assay) of the same compound?
Answer: 1.5874

Question: And the “OD490 values, Well 3” value (10μM, third assay)?
Answer: 1.5922

Question: What about the “OD490 values, Mean” value (25μM, first assay) of the same compound?
Answer: 1.1330

Question: What about the “OD490 values, Well 1” value (25μM, first assay) of the same compound?
Answer: 1.1639

Question: And the “OD490 values, Well 2” value (25μM, first assay)?
Answer: 1.1385

Question: What about the “OD490 values, Well 3” value (25μM, first assay) of the same compound?
Answer: 1.0965

Question: And the “OD490 values, Mean” value (25μM, second assay)?
Answer: 1.3592

Question: And the “OD490 values, Well 1” value (25μM, second assay)?
Answer: 1.4632

Question: What about the “OD490 values, Well 2” value (25μM, second assay) of the same compound?
Answer: 1.2302

Question: And the “OD490 values, Well 3” value (25μM, second assay)?
Answer: 1.3841

Question: And the “OD490 values, Mean” value (25μM, third assay)?
Answer: 1.5851

Question: And the “OD490 values, Well 1” value (25μM, third assay)?
Answer: 1.5924

Question: What about the “OD490 values, Well 2” value (25μM, third assay) of the same compound?
Answer: 1.5955

Question: And the “OD490 values, Well 3” value (25μM, third assay)?
Answer: 1.5674

Question: And the “OD490 values, Mean” value (50μM, first assay)?
Answer: 1.0425

Question: What about the “OD490 values, Well 1” value (50μM, first assay) of the same compound?
Answer: 1.0133

Question: And the “OD490 values, Well 2” value (50μM, first assay)?
Answer: 1.0567

Question: And the “OD490 values, Well 3” value (50μM, first assay)?
Answer: 1.0575

Question: And the “OD490 values, Mean” value (50μM, second assay)?
Answer: 1.2636

Question: What about the “OD490 values, Well 1” value (50μM, second assay) of the same compound?
Answer: 1.2147

Question: What about the “OD490 values, Well 2” value (50μM, second assay) of the same compound?
Answer: 1.2548

Question: What about the “OD490 values, Well 3” value (50μM, second assay) of the same compound?
Answer: 1.3214

Question: What about the “OD490 values, Mean” value (50μM, third assay) of the same compound?
Answer: 1.3874

Question: And the “OD490 values, Well 1” value (50μM, third assay)?
Answer: 1.3352

Question: And the “OD490 values, Well 2” value (50μM, third assay)?
Answer: 1.3582

Question: And the “OD490 values, Well 3” value (50μM, third assay)?
Answer: 1.4687

Question: What about the “OD490 values, Mean” value (100μM, first assay) of the same compound?
Answer: 0.9106

Question: What about the “OD490 values, Well 1” value (100μM, first assay) of the same compound?
Answer: 0.8752

Question: What about the “OD490 values, Well 2” value (100μM, first assay) of the same compound?
Answer: 0.9980

Question: And the “OD490 values, Well 3” value (100μM, first assay)?
Answer: 0.8587

Question: And the “OD490 values, Mean” value (100μM, second assay)?
Answer: 1.0255

Question: And the “OD490 values, Well 1” value (100μM, second assay)?
Answer: 0.9632

Question: And the “OD490 values, Well 2” value (100μM, second assay)?
Answer: 1.0012

Question: And the “OD490 values, Well 3” value (100μM, second assay)?
Answer: 1.1122

Question: And the “OD490 values, Mean” value (100μM, third assay)?
Answer: 1.3052

Question: What about the “OD490 values, Well 1” value (100μM, third assay) of the same compound?
Answer: 1.3254

Question: What about the “OD490 values, Well 2” value (100μM, third assay) of the same compound?
Answer: 1.2547

Question: And the “OD490 values, Well 3” value (100μM, third assay)?
Answer: 1.3354

Question: What about the IC50 (MTS assay, 24 h exposure, ordinary fibroblast, not cancer cells) of the same compound?
Answer: 121 µM
